According to paper PMC7176092, “Development of the first in vivo GPR17 ligand through an iterative drug discovery pipeline: A novel disease-modifying strategy for multiple sclerosis” (PLoS ONE, 2020):
Several values for one entry are separate records, joined by “and”; a condition that tells them apart may be missing. Equal values may be shown once. Read-outs that look alike come from different tables or passages of the source.

Key:
ADR2C = target: T1, ADR2C (Homo sapiens, UniProt P18825); experiment: Binding assay ADR2C; settings: 100 nM
T1 construct: Eurofins Cerep (external service)
T1 sequence (P18825 1-462): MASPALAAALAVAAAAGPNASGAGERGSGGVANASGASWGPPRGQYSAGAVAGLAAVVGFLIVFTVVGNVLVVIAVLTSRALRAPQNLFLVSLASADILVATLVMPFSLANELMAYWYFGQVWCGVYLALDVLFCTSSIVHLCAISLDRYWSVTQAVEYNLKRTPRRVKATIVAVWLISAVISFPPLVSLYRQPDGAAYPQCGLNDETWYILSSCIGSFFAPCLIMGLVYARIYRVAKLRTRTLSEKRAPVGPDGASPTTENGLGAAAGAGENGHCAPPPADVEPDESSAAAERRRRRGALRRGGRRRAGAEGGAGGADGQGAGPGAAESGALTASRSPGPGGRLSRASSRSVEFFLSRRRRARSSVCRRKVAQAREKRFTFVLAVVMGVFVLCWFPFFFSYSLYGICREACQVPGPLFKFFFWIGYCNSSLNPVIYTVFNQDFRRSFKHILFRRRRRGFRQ

[1] = In vivo mouse DMPK study, single 1 mg/kg subcutaneous dose
Description: In vivo DMPK studies were performed as an external service by Aptuit (Verona, Italy) according to standard procedures.
Two compounds were tested in a single dose pharmacokinetic (PK) study in mouse, in which a 1 mg/kg single dose solution (15% Ethanol, 85% PEG400) was administered by subcutaneous injection to naïve CD1 male mice from accredited supplier (n = 3), weighed prior to dosing. Blood samples were collected for 8 time-points (0.25, 0.50, 1, 2, 4, 6, 8, 24 hours).
Plasma samples were prepared and diluted according standard in-house procedures and stored at approximately -20°C, pending analysis. Briefly, blood samples were collected into tubes containing anticoagulant (K3EDTA), stored on ice and centrifuged to prepare plasma within 2 hours of collection. Plasma samples were diluted in Hepes Buffer and deproteinised using CH3CN containing rolipram as internal reference compound for positive ion mode, according standard procedure (20 ng/ml). After vortexing and centrifugation (3000 rpm per 10 min), sample supernatants were transferred in 96 well plate and diluted with water for analysis.
Blood concentrations of the tested compounds and their metabolites were detected through Liquid Chromatography-tandem Mass Spectrometry (QTRAP® 4000 LC-MS/MS System, Sciex). The results for each test compound in plasma were subjected to non-compartmental PK analysis using WinNonlin Phoenix v.6.3 for generation of appropriate PK parameters, reported along with graphical representation of the mean plasma concentration profiles over time.
At 24 hours, animals were sacrificed, and brains were collected and processed for measuring compound concentrations through mass spectrometry.

mGluR5 = target: T2, mGluR5 (Homo sapiens, UniProt P41594); experiment: Binding assay mGluR5; settings: 100 nM
T2 construct: Eurofins Cerep (external service)
T2 sequence (P41594 21-1212): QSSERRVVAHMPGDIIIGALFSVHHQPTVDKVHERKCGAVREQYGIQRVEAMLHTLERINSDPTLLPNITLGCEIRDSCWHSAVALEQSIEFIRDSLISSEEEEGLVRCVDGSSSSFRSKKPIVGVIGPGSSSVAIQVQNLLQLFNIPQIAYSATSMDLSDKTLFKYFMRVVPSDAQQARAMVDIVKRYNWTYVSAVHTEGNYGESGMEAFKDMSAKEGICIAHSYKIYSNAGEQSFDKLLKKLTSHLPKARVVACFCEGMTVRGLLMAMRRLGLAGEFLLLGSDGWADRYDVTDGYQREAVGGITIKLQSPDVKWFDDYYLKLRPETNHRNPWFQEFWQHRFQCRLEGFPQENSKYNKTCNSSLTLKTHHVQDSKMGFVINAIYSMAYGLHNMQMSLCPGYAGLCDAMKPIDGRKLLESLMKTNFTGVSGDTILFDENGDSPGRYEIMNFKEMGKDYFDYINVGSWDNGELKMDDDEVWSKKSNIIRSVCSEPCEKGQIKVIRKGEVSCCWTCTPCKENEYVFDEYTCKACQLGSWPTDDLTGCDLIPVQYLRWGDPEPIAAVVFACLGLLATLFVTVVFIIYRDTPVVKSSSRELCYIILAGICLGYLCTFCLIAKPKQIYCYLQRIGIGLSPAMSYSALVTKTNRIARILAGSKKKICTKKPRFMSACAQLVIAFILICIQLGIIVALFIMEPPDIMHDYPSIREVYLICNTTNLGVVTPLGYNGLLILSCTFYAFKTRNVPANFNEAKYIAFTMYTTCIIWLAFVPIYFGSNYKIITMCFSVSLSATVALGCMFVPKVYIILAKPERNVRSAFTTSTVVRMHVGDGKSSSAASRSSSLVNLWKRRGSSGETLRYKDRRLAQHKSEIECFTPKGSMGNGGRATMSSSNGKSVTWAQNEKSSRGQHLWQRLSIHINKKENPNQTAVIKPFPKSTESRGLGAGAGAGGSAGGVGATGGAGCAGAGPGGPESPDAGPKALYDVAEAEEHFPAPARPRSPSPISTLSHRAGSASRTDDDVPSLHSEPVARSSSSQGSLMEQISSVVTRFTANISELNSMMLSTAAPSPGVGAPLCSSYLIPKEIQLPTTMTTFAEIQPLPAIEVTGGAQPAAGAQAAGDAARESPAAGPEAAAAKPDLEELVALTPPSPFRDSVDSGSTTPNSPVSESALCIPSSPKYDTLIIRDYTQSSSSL

ADR2A = target: T3, ADR2A (Homo sapiens, UniProt P08913); experiment: Binding assay ADR2A; settings: 100 nM
T3 construct: Eurofins Cerep (external service)
T3 sequence (P08913 1-465): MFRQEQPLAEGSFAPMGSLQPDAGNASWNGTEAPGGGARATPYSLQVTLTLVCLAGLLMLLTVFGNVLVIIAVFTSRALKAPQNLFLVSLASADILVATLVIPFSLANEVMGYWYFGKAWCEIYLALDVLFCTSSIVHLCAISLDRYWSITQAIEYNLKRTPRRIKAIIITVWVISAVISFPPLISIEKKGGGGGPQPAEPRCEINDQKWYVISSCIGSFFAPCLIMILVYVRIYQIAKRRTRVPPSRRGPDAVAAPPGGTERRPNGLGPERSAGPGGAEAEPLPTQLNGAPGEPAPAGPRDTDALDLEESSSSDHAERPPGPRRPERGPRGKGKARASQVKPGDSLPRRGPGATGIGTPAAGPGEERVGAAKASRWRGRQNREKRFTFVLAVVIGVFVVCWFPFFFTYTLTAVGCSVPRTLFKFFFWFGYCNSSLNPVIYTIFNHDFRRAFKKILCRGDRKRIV

ADR3 = target: T4, ADR3 (Homo sapiens, UniProt P13945); experiment: Binding assay ADR3 (reference Alprenolol); settings: 100 nM
T4 construct: Eurofins Cerep (external service)
T4 sequence (P13945 whole entry): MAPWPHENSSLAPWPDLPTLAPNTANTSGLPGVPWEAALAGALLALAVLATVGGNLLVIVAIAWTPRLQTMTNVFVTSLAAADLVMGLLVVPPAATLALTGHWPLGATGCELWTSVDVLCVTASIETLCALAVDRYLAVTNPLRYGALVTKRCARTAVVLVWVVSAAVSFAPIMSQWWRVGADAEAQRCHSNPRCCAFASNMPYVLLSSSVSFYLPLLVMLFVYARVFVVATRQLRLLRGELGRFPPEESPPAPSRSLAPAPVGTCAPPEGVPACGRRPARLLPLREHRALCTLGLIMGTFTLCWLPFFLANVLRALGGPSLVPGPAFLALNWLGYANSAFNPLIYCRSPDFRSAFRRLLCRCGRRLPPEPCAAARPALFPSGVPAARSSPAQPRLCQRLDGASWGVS

M1 = target: T5, M1 (Homo sapiens, UniProt P11229); experiment: Binding assay M1; settings: 100 nM
T5 construct: Eurofins Cerep (external service)
T5 sequence (P11229 1-460): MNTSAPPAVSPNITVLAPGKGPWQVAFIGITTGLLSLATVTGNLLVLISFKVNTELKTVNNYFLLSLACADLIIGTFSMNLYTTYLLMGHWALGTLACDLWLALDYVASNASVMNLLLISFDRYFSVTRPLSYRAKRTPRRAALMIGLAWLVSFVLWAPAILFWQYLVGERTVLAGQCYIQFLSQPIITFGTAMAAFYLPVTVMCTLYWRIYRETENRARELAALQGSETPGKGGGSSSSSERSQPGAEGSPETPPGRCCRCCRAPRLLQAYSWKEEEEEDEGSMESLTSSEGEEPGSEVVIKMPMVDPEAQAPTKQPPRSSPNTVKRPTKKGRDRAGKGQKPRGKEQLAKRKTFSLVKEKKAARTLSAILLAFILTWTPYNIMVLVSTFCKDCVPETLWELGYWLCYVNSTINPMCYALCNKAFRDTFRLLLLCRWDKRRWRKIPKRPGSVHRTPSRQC

CXCR6 = CXCR6 (Homo sapiens, UniProt O00574); experiment: Cellular functional assay CXCR6
CXCR6, sequence (O00574 whole entry): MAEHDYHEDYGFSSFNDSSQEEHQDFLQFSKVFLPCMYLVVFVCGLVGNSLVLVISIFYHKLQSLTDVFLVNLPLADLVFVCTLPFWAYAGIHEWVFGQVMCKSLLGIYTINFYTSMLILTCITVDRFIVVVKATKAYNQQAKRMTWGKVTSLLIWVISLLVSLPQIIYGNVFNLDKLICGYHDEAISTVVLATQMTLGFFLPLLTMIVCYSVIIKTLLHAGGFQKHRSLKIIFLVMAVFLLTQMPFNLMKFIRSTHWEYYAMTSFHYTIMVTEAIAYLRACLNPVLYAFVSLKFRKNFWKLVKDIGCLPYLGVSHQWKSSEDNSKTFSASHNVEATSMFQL

[2] = mean of 2, read-out: % Of control specific binding, Mean
[3] = read-out: % Inhibition of control specific binding
[4] = single replicates 1 and 2, 0.1 µM
[5] = single replicates 1 and 2, read-out: % Of control specific binding
[6] = mouse, sc, plasma, 1 mg/kg s.c. single dose, CD1 male mice

remaining activity at 0.1 µM (ADR2C; [2]): 109%
inhibition at 0.1 µM (ADR2C; [3]): -9%
% Of control specific binding (ADR2C; [4]): 108.4%
remaining activity at 0.1 µM (ADR2C; [5]): 109%
Plasma concentration, individual mice ([1]; 0.50 h, 1 mg/kg s.c., 1 mg/kg): 71.7 ng/mL and 98.3 ng/mL and 30.8 ng/mL
Plasma concentration, individual mice ([1]; 1.00 h, 1 mg/kg s.c., 1 mg/kg): 14.3 ng/mL and 38.5 ng/mL and 76.3 ng/mL
Plasma concentration, individual mice ([1]; 2.00 h, 1 mg/kg s.c., 1 mg/kg): 5.6 ng/mL and 10.3 ng/mL and 29.8 ng/mL
Plasma concentration, individual mice ([1]; 4.00 h, 1 mg/kg s.c., 1 mg/kg): 2.6 ng/mL
concentration at 0.5 h ([1]; male, CD1, mouse, plasma, sc, 1 mg/kg, 0.50 h, 1 mg/kg s.c., n=3 mice, read-out: Plasma concentration, Mean): 66.9 ng/mL
concentration at 1 h ([1]; male, CD1, mouse, plasma, sc, 1 mg/kg, 1.00 h, 1 mg/kg s.c., n=3 mice, read-out: Plasma concentration, Mean): 43 ng/mL
concentration at 2 h ([1]; male, CD1, mouse, plasma, sc, 1 mg/kg, 2.00 h, 1 mg/kg s.c., n=3 mice): 15.2 ng/mL
concentration at 4 h ([1]; male, CD1, mouse, plasma, sc, 1 mg/kg, 4.00 h, 1 mg/kg s.c., read-out: Plasma concentration, Mean): 2.8 ng/mL
concentration at 4 h ([1]; male, CD1, mouse, plasma, sc, 1 mg/kg, 4.00 h, 1 mg/kg s.c., read-out: Plasma concentration, individual mice): 2.9 ng/mL
concentration at 4 h ([1]; male, CD1, mouse, plasma, sc, 1 mg/kg, plasma, 1 mg/kg s.c. single dose, CD1 male mice, read-out: Clast): 4.81 ng/mL
AUC(0-t) [1, 6]: 85.8 ng·h/mL
Cmax [1, 6]: 72.3 ng/mL
Tmax [1, 6]: 30 min
half-life [1, 6]: 65.4 min
Metabolites found in vivo ([1]; plasma after s.c. administration in mice): no detectable metabolites
Tlast ([1]; plasma, 1 mg/kg s.c. single dose, CD1 male mice): 4.00 h
remaining activity at 0.1 µM (mGluR5; [2]): 104%
inhibition at 0.1 µM (mGluR5; [3]): -4%
% Of control specific binding (mGluR5; [4]): 106.8%
remaining activity at 0.1 µM (mGluR5; [5]): 102%
remaining activity at 0.1 µM (ADR2A; [2]): 99.9%
inhibition at 0.1 µM (ADR2A; [3]): 0%
% Of control specific binding (ADR2A; [4]): 99.5%
remaining activity at 0.1 µM (ADR2A; [5]): 100%
remaining activity at 0.1 µM (ADR3; [2]): 99.1%
inhibition at 0.1 µM (ADR3; [3]): 1%
% Of control specific binding (ADR3; [4]): 95.7%
remaining activity at 0.1 µM (ADR3; [5]): 102%
remaining activity at 0.1 µM (M1; [2]): 108%
inhibition at 0.1 µM (M1; [3]): -8%
% Of control specific binding (M1; [4]): 110.2%
remaining activity at 0.1 µM (M1; [5]): 105%
Agonist Response (% of Control) (CXCR6; antagonist effect, 100 nM, single replicates 1st and 2nd, 0.1 µM): 103.1%
inhibition at 0.1 µM (CXCR6; read-out: % Inhibition of control agonist response): -0.7%
activity at 0.1 µM (CXCR6; read-out: Agonist Response (% of Control), Mean, antagonist effect, 100 nM, mean of 2): 104%
activity at 0.1 µM (CXCR6; read-out: Agonist Response (% of Control), antagonist effect, 100 nM, single replicates 1st and 2nd): 105%
Compound: Cc1ccc(-c2nnc(SCC(=O)Nc3nccs3)[nH]2)cc1 [Compound 9]
